The term viability denotes a read-out of living cells in per cent, often relative to untreated cells. A word on the IC50: it is the point on the concentration scale where inhibition reaches its midpoint.

This is an account of results in PMC6572618, “Anti-Trypanosomal and Antimalarial Properties of Tetralone Derivatives and Structurally Related Benzocycloalkanones” (Medicina, 2019).

Values joined by “and” are separate entries in the source; they are usually repeats but may differ in a detail not shown here. Equal entries are not always repeated.

Type in all cases: cell-based
Data set [1] concerns chloroquine sensitive strain of P. falciparum (3D7). As to the kind of experiment: In vitro antiplasmodial assay (parasite lactate dehydrogenase, pLDH). The protocol:
An antimalarial evaluation was performed against the chloroquine sensitive strain of P. falciparum (3D7) using the parasite lactate dehydrogenase (pLDH) assay as previously reported. Parasites were seeded at 2% parasitemia and 1% hematocrit in 96 well plates and were incubated with 20 µM of the test compounds for 48 h in culture medium consisting of Rosell Park Memorial Institute (RPMI 1640; Lonza, Basel, Switzerland) containing 25 mM 4-(2-hydroxyethyl)-1-piperazineethanesulfonic acid (HEPES), supplemented with 0.5% (w/v) Albumax II, 22 mM glucose, 0.65 mM hypoxanthine, 0.05mg/mL gentamicin, and 1% (v/v) human erythrocytes, at 37 °C under an atmosphere of 5% CO2, 5% O2, and 90% N2. The parasite lactate dehydrogenase activity in the wells was determined using the colorimetric assay method of Makler et al.. The absorbance readings were converted to % parasite viability relative to the wells containing untreated parasites.
(§1) Thirty-five tetralone derivatives (see Figure 2) and six related benzocycloalkanones (see Figure 3) were evaluated in vitro against T. b. brucei for antitrypanosomal activity through the resazurin assay protocol. The compounds were also evaluated against the chloroquine-sensitive strain (3D7) of P. falciparum for antimalarial activity using pLDH assay and against the HeLa cell line for cytotoxicity evaluation using the resazurin assay protocol.

Data set [2] relates to 427 Trypanosoma brucei brucei trypomastigotes. Description: In vitro anti-trypanosomal assay (resazurin). Particulars: 48 h; for IC50: three-fold serial dilutions from 100 µM, read-out: IC50 (µM) T. b. brucei. How it is done:
The activity of the compounds against 427 Trypanosoma brucei brucei trypomastigotes was determined as previously described. Briefly, parasites were incubated in 96-well plates with 20 µM or three-fold serial dilutions (100 µM starting concentration) of test compounds in Iscove’s modified Dulbecco’s medium (IMDM) (Lonza, Basel, Switzerland) supplemented with 10% fetal calf serum, HMI-9 supplement, hypoxanthine, and penicillin/streptomycin at 37 °C in a 5% CO2 incubator. After 48 h, 20 µL of resazurin reagent (0.135 mg/mL resazurin in phosphate-buffered saline) was added to each well and the fluorescence (Ex560/Em590) read after 2–4 h in a Spectramax M3 plate reader (Molecular Devices, San Jose, CA, USA). The fluorescence readings were used to calculate % parasite viability relative to the readings obtained from the wells containing untreated control parasite cultures. The IC50 values were determined by plotting % viability vs. log(compound) and performing a non-linear regression using a GraphPad Prism (v. 5.02) (San Diego, CA, USA).
as §1
In general terms: The colour change of resazurin is a common sign of viable cells or microbes.

The nature of data set [3]: In vitro cytotoxicity assay (resazurin). Particulars: human, HeLa cells; 20 µM compound, 24 h, % cell viability relative to untreated control; read-out: % Viability at 20 µM (SD) HeLa Cell. The protocol: (§2) As previously described, HeLa cells (Cellonex, Johannesburg, South Africa) were seeded in 96-well plates at a density of 2 × 10^4 cells/well in Dulbecco’s modified Eagle’s medium (DMEM) (Lonza, Basel, Switzerland) supplemented with 10% fetal calf serum and antibiotics (penicillin/streptomycin/amphotericin B) and incubated overnight at 37 °C in a 5% CO2 incubator. Compounds were added to the cells at a final concentration of 20 µM, and incubation continued for 24 h. The cell viability in the wells was assessed by adding 20 µL of resazurin reagent (0.135 mg/mL resazurin in phosphate-buffered saline) and reading the fluorescence (Ex560/Em590) after an additional 2–4 h incubation. The fluorescence readings were converted to % cell viability relative to the average readings obtained from the untreated control wells.
as §1

Another data set deals with HeLa cells. Description: In vitro cytotoxicity assay (resazurin). The protocol: as §2, §1
The mark [4] stands for this setting: 20 µM compound, % parasite viability relative to untreated control.
The mark [5] stands for this setting: 20 µM compound, 24 h, % cell viability relative to untreated control.
Where [6] appears, read: 20 µM compound, % parasite viability relative to untreated control, 20 µM.

Consider `COc1ccc2c(c1)C(=O)/C(=C/c1ccsc1)CC2` [Compound 35], for which the viability at 20 µM in data set [1] (Plasmodium falciparum, 3D7, 48 h, 20 µM compound, 48 h, P. falciparum 3D7, % parasite viability relative to untreated parasites, read-out: % Viability at 20 µM (SD) 3D7) worked out at 86%; in data set [2] (Trypanosoma brucei, 20 µM compound, % parasite viability relative to untreated control, read-out: % Viability at 20 µM (SD) T.b. brucei) it was 22%. Also, in data set [2] (Trypanosoma brucei), the 50% inhibitory concentration (IC50) was 2.6 µM. For the same compound, the viability at 24 h, 20 µM in data set [3] amounted to 122%.
For the compound `O=C1/C(=C/c2ccc(Cl)cc2)CCc2ccc(O)cc21` [Compound 14], the “% Viability at 20 µM (SD) T.b. brucei” value in data set [2] (setting [4]) is recorded as 0.1 (0.1) %. Besides, the “% Viability at 20 µM (SD) HeLa Cell” value in the data set on HeLa cells (setting [5]) is given as 27 (2) %.
Regarding `O=C1/C(=C/c2cccc(Br)c2)CCc2ccc(O)cc21` [Compound 18], in data set [1] (20 µM), the “% Viability at 20 µM (SD) 3D7” value is on record as 99 (8) %. Besides, the “% Viability at 20 µM (SD) T.b. brucei” value in data set [2] (setting [4]) is reported as 1.2 (0.31) %. The “% Viability at 20 µM (SD) HeLa Cell” value in the data set with HeLa cells (setting [5]) is reported as 26 (3) %.
In the case of `O=C1/C(=C/c2ccccc2)CCc2ccc(O)cc21` [Compound 9], the “% Viability at 20 µM (SD) 3D7” value in data set [1] (20 µM) was 101 (4) %. Also, the “% Viability at 20 µM (SD) T.b. brucei” value in data set [2] (setting [4]) is given as −4 (0.3) %. For the same compound, in the data set with HeLa cells (setting [5]), the “% Viability at 20 µM (SD) HeLa Cell” value is 9 (0.1) %.
Turning to `O=C1/C(=C/c2ccccc2)CCc2ccccc21` [Compound 3], the “% Viability at 20 µM (SD) 3D7” value in data set [1] (20 µM compound, 48 h, P. falciparum 3D7, % parasite viability relative to untreated parasites) was 103 (2) %. Besides, in data set [2] (setting [4]), the “% Viability at 20 µM (SD) T.b. brucei” value is on record as 43 (3) %. Also, the “% Viability at 20 µM (SD) HeLa Cell” value in the data set with HeLa cells (20 µM) was 116 (5) %.
Take `O=C1/C(=C/c2ccc(Cl)cc2)CSc2ccccc21` [Compound 39]: the “% Viability at 20 µM (SD) 3D7” value in data set [1] (20 µM) was 11 (0.9) %. Also, the “% Viability at 20 µM (SD) T.b. brucei” value in data set [2] (setting [6]) is 0.3 (0.3) %. Moreover, the “% Viability at 20 µM (SD) HeLa Cell” value in the data set with HeLa cells (setting [5]) is 8 (2) %.
`O=C1/C(=C/c2cccc(Cl)c2)CCc2ccc(O)cc21` [Compound 15]: the “% Viability at 20 µM (SD) 3D7” value in data set [1] (20 µM) was −3 (6) %. In data set [2] (setting [4]), the “% Viability at 20 µM (SD) T.b. brucei” value is 0.6 (0.01) %. Besides, in the data set with HeLa cells (setting [5]), the “% Viability at 20 µM (SD) HeLa Cell” value is reported as 18 (0.4) %.
For the compound `O=C1/C(=C/c2ccc(Cl)cc2)Cc2ccccc21` [Compound 36], the “% Viability at 20 µM (SD) 3D7” value in data set [1] (20 µM) is given as 93 (3) %. The “% Viability at 20 µM (SD) T.b. brucei” value in data set [2] (setting [6]) is given as 99 (0.1) %. The “% Viability at 20 µM (SD) HeLa Cell” value with HeLa cells (setting [5]) is 74 (10) %.
Take `N#Cc1cccc(/C=C2\CCc3ccc(N)cc3C2=O)c1` [Compound 2]: in data set [1] (20 µM), the “% Viability at 20 µM (SD) 3D7” value was 110 (1) %. For the same compound, the “% Viability at 20 µM (SD) T.b. brucei” value in data set [2] (setting [4]) is on record as 95 (3) %. Moreover, in the data set on HeLa cells (setting [5]), the “% Viability at 20 µM (SD) HeLa Cell” value is listed as 77 (2) %.
For `O=C1/C(=C/c2ccc(O)cc2)CCc2ccc(O)cc21` [Compound 19], the “% Viability at 20 µM (SD) 3D7” value in data set [1] (20 µM) is on record as 104 (12) %. Also, the “% Viability at 20 µM (SD) T.b. brucei” value in data set [2] (setting [4]) is 1 (0.2) %. The “% Viability at 20 µM (SD) HeLa Cell” value in the data set on HeLa cells (setting [5]) is 44 (4) %.
With `COc1ccc(/C=C2\CCc3ccc(O)cc3C2=O)cc1` [Compound 23], in data set [1] (20 µM), the “% Viability at 20 µM (SD) 3D7” value is 88 (10) %. Besides, the “% Viability at 20 µM (SD) T.b. brucei” value in data set [2] (setting [4]) is reported as 0.2 (0.1) %. Moreover, in the data set on HeLa cells (setting [5]), the “% Viability at 20 µM (SD) HeLa Cell” value is on record as 25 (2) %.
Take `N=C(N)c1ccc(OCCCCCOc2ccc(C(=N)N)cc2)cc1` [PE, pentamidine, reference compound]: the IC50 in data set [2] (Trypanosoma brucei) amounted to 0.0042 µM.
On to `Nc1ccc2c(c1)CC/C(=C\c1ccccc1)C2=O` [Compound 11], for which the “% Viability at 20 µM (SD) 3D7” value in data set [1] (20 µM) is 111 (1) %. The “% Viability at 20 µM (SD) T.b. brucei” value in data set [2] (setting [6]) was 95% and 97 (0.3) %. Moreover, the “% Viability at 20 µM (SD) HeLa Cell” value in the data set with HeLa cells (setting [5]) was 86 (9) %.
As for `COc1ccc2c(c1)C(=O)/C(=C/c1ccco1)CC2` [Compound 28], in data set [1] (20 µM), the “% Viability at 20 µM (SD) 3D7” value is 100 (3) %. In data set [2] (setting [4]), the “% Viability at 20 µM (SD) T.b. brucei” value is 31 (5) %. Besides, the “% Viability at 20 µM (SD) HeLa Cell” value in the data set with HeLa cells (setting [5]) was 97 (9) %.
As to `COc1ccc2c(c1)C(=O)/C(=C/c1cccnc1Cl)CC2` [Compound 34], the “% Viability at 20 µM (SD) 3D7” value in data set [1] (20 µM) is 113 (6) %. Moreover, in data set [2] (setting [4]), the “% Viability at 20 µM (SD) T.b. brucei” value is listed as 98 (2) %. Also, in the data set with HeLa cells (setting [5]), the “% Viability at 20 µM (SD) HeLa Cell” value was 47 (1.7) %.
